ChEMBL document CHEMBL4689842, “EUbOPEN Chemogenomics Library wave 1” (2021)

Columns and labels:
Type in all cases: toxicity, cell-based
HEK-293T = assay: Incucyte cell viability with HEK293T; details: human, 10 µM, compound concentration 10 uM
Fibroblast = assay: Incucyte cell viability with human fibroblast; details: 10 µM, compound concentration 10 uM
U2OS = assay: Incucyte cell viability with U2OS; details: human, 10 µM, compound concentration 10 uM
[1] = 0 h, replicate number 1, timepoint 0 hours
[2] = 6 h, replicate number 1, timepoint 6 hours
[3] = 6 h, replicate number 2, timepoint 6 hours
[4] = 12 h, replicate number 1, timepoint 12 hours
[5] = 12 h, replicate number 2, timepoint 12 hours
[6] = 18 h, replicate number 1, timepoint 18 hours
[7] = 18 h, replicate number 2, timepoint 18 hours
[8] = 24 h, replicate number 1, timepoint 24 hours
[9] = 24 h, replicate number 2, timepoint 24 hours
[10] = 0 h, replicate number 2, timepoint 0 hours
Note: filed as whole numbers so only -1 and 0 and 1 occur.

| SMILES | Growth Rate (HEK-293T; [1]) | Growth Rate (HEK-293T; [2]) | Growth Rate (HEK-293T; [3]) | Growth Rate (HEK-293T; [4]) | Growth Rate (HEK-293T; [6]) | Growth Rate (HEK-293T; [7]) | Growth Rate (HEK-293T; [8]) | Growth Rate (Fibroblast; [1]) | Growth Rate (Fibroblast; [2]) | Growth Rate (Fibroblast; [4]) | Growth Rate (Fibroblast; [6]) | Growth Rate (Fibroblast; [8]) | Growth Rate (Fibroblast; [9]) | Growth Rate (U2OS; [1]) | Growth Rate (U2OS; [4]) | Growth Rate (U2OS; [5]) | Growth Rate (U2OS; [6]) | Growth Rate (U2OS; [8]) | Growth Rate (U2OS; [3]) | Growth Rate (Fibroblast; [5]) | other results |
| --- | --- | --- | --- | --- | --- | --- | --- | --- | --- | --- | --- | --- | --- | --- | --- | --- | --- | --- | --- | --- | --- |
| C[C@@H](N)Cc1c[nH]cn1.Cl.Cl | 0 | 1 | 0 | 1 | 1 | 0 | 1 | 1 | 0 | 0 | 0 | 0 | 1 | 1 | 0 | 1 | 0 | 0 |  |  | Growth Rate (HEK-293T; [5]): 0; Growth Rate (HEK-293T; [9]): 0; Growth Rate (Fibroblast; [10]): 0; Growth Rate (U2OS; [2]): 0; Growth Rate (U2OS; [7]): 1; Growth Rate (U2OS; [9]): 1 |
| Cc1cn2cc(CC(=O)N3CCC4(CC3)CN(Cc3ccc(-n5nccn5)cc3Cl)C4)nc2s1 | 1 | 0 |  | 0 | 0 |  | 0 | 1 | 0 | 0 | 0 | 1 | 0 | 0 | 1 |  | 1 | 1 | 0 |  | Growth Rate (HEK-293T; [10]): 0 |
| OCCn1cc(-c2ccc3c(c2)CCC3=NO)c(-c2ccncc2)n1 | 0 |  |  | 1 | 0 | 1 | 0 | 0 |  | 1 | 1 | 1 |  | 1 | 1 |  | 1 | 1 |  | 0 | Growth Rate (HEK-293T; [9]): 1; Growth Rate (Fibroblast; [3]): 1; Growth Rate (Fibroblast; [7]): 0; Growth Rate (U2OS; [2]): 1; Growth Rate (U2OS; [7]): 0 |
| CCCCC#Cc1nc(NC)c2ncn([C@@H]3O[C@H](CO)[C@@H](O)[C@H]3O)c2n1 | 0 | 0 | 1 | 0 | 0 | 1 | 0 | 0 | 1 | 1 | 1 | 1 |  | 0 | 1 | 0 | 1 | 1 |  |  | Growth Rate (HEK-293T; [5]): 1; Growth Rate (HEK-293T; [9]): 1; Growth Rate (U2OS; [2]): 0 |
| CCC(=O)NC1Cc2ccccc2C(c2ccccc2)C1 (centres undefined) | 0 | 1 | 0 | 0 | 0 |  | 0 | 0 | 0 | 0 | 0 | 0 |  | 0 | 1 |  | 1 | 0 | 0 |  | Growth Rate (U2OS; [7]): 0 |
| Cc1cc2c(cc1C1(c3ccc(C(=O)O)cn3)CC1)C(C)(C)CCC2(C)C | 0 | 1 |  | 1 | 1 | 0 | 0 | 1 | 0 | 0 | 1 | 0 | 1 | 0 | 1 |  | 1 | 1 |  |  | Growth Rate (HEK-293T; [5]): 0; Growth Rate (Fibroblast; [10]): 0; Growth Rate (Fibroblast; [3]): 1 |
| CC(C)C[C@H](NC(=O)N1CCCCCC1)C(=O)N[C@H](Cc1cn(C)c2ccccc12)C(=O)N[C@H](Cc1ccccn1)C(=O)O | 0 | 0 | 1 | 0 | 1 |  | 1 | 0 |  |  | 1 | 1 | 0 | 0 |  | 1 | 1 | 1 | 1 | 0 | Growth Rate (HEK-293T; [5]): 1; Growth Rate (Fibroblast; [3]): 0 |
| C/C(=C/C=C/C(C)=C/C(=O)O)c1cc(C(C)(C)C)cc(C(C)(C)C)c1OCC(F)F | 0 | 0 |  | 0 | 0 |  | 0 | 0 | 0 | 0 | 0 | 0 |  | 0 | 1 |  | 1 | 1 |  |  | Growth Rate (Fibroblast; [7]): 1 |
| CC(C)c1ccc(CC(=O)N2CCC[C@@H](c3cccc(OC(C)(C)C(=O)O)c3)C2)cc1 | 1 | 0 | 1 | 1 | 0 |  | 0 |  | 0 | 1 | 0 | 0 |  | 0 |  | 1 | 1 | 1 | 0 | 0 | Growth Rate (HEK-293T; [10]): 0; Growth Rate (HEK-293T; [9]): 1 |
| CCOP(=O)(OCC)C(=Cc1cc(C(C)(C)C)c(O)c(C(C)(C)C)c1)P(=O)(OCC)OCC | 0 |  | 0 | 0 | 0 |  | 0 |  | 0 | 0 | 0 | 0 |  | 1 | 0 |  | 0 | 0 | 0 |  | Growth Rate (Fibroblast; [7]): 1; Growth Rate (U2OS; [10]): 0 |
| Cc1cc2c(cc1-c1cc(/C=C/C(=O)O)ccc1O)C(C)(C)CCC2(C)C | 0 | 1 |  | 1 | 1 |  | 1 | 0 |  | 1 | 1 | 1 |  | 0 | 1 | 0 | 1 | 1 | 0 |  | Growth Rate (U2OS; [7]): 0 |
| C/C(=N\NC(=O)[C@@H]1C(=O)NC[C@H]1c1ccccc1)c1cccc(Br)c1 | 1 | 0 |  | 0 | 0 |  | 0 | 1 | 0 | 0 | 0 | 1 | 0 | 0 | 1 | 0 | 0 | 0 |  |  | Growth Rate (HEK-293T; [10]): 0; Growth Rate (U2OS; [2]): 0 |
| COc1cc(OC)c(NC(=O)c2ccc(Cc3cc4c(cc3C)C(C)(C)CCC4(C)C)o2)c(OC)c1 | 1 | 0 | 1 | 0 | 0 |  | 0 | 0 | 0 |  | 1 | 1 |  | 0 | 1 |  | 1 | 0 | 1 | 1 | Growth Rate (HEK-293T; [10]): 0 |
| Cc1c(C2=CCN(C(=O)N(C)C(C)C)CC2)nnn1-c1cccnc1F | 0 | 1 |  | 1 | 0 | 1 | 1 | 1 | 0 | 0 | 0 | 0 | 1 | 0 | 1 |  | 1 | 1 | 0 | 1 | Growth Rate (Fibroblast; [10]): 0; Growth Rate (Fibroblast; [7]): 1 |
